Experimental data taken from ChEMBL document CHEMBL1141148, “Antidiabetic activity of passive nonsteroidal glucocorticoid receptor modulators” (J Med Chem, 2005).
Values joined by “and” are separate entries in the source; they are usually repeats but may differ in a detail not shown here. Equal entries are not always repeated.

Tests used:
[1] = Free fatty acid (FFA) levels in ob/ob mice after 13 days of oral dose at 10 mpk b.i.d.; assay type: ADME; details: mouse, in vivo, 10 mg/kg, 312 h
Mus musculus [2] = species: Mus musculus; test: Final weight of the ob/ob mice after 13 days of oral treatment at 100 mpk b.i.d.; assay type: functional
[3] = Glucose levels in ob/ob mice after 13 days of oral dose at 100 mpk b.i.d.; assay type: ADME; details: mouse, in vivo, 100 mg/kg, 312 h
[4] = Free levels in ob/ob mice after 13 days of oral dose at 100 mpk b.i.d.; assay type: ADME; details: mouse, in vivo, 100 mg/kg, 312 h
Mus musculus [5] = species: Mus musculus; test: Final weight of the ob/ob mice after 13 days of oral treatment at 10 mpk b.i.d.; assay type: functional
[6] = Aspartate aminotransferase (AST) levels in ob/ob mice after 13 days of oral dose at 100 mpk b.i.d.; assay type: ADME; details: mouse, in vivo, 100 mg/kg, 312 h
Mus musculus [7] = species: Mus musculus; test: Initial weight of the ob/ob mice before oral treatment at 100 mpk b.i.d. for 13 days; assay type: functional
[8] = Aspartate aminotransferase (AST) levels in ob/ob mice after 13 days of oral dose at 10 mpk b.i.d.; assay type: ADME; details: mouse, in vivo, 10 mg/kg, 312 h
[9] = Alanine aminotransferase (ALT) levels in ob/ob mice after 13 days of oral dose at 10 mpk b.i.d.; assay type: ADME; details: mouse, in vivo, 10 mg/kg, 312 h
[10] = Clearance of the compound in rat after 5 mg/kg iv dose was determined; details: in vivo
Mus musculus [11] = species: Mus musculus; test: Initial weight of the ob/ob mice before oral treatment at 10 mpk b.i.d. for 13 days; assay type: functional
[12] = Glucose levels in ob/ob mice after 13 days of oral dose at 10 mpk b.i.d.; assay type: ADME; details: mouse, in vivo, 10 mg/kg, 312 h
Mus musculus [13] = species: Mus musculus; test: Final weight of the ob/ob mice after 14 days of oral treatment at 100 mpk b.i.d.; assay type: functional
[14] = Free fatty acid (FFA) levels in ob/ob mice after 14 days of oral dose at 100 mpk b.i.d.; assay type: ADME; details: mouse, in vivo, 100 mg/kg, 336 h
[15] = Cholesterol levels in ob/ob mice after 14 days of oral dose at 100 mpk b.i.d.; assay type: ADME; details: mouse, in vivo, 100 mg/kg, 336 h
[16] = Glucose levels in ob/ob mice after 14 days of oral dose at 100 mpk b.i.d.; assay type: ADME; details: mouse, in vivo, 100 mg/kg, 336 h
Mus musculus [17] = species: Mus musculus; test: Initial weight of the ob/ob mice before oral treatment at 100 mpk b.i.d. for 14 days; assay type: functional
Mus musculus [18] = species: Mus musculus; test: Final weight of the ob/ob mice after 14 days of oral treatment at 30 mpk b.i.d.; assay type: functional
[19] = HbA1c levels in ob/ob mice after 30 days of oral dose at 100 mpk b.i.d.; details: mouse, in vivo, 100 mg/kg, 720 h
[20] = Free fatty acid (FFA) levels in ob/ob mice after 14 days of oral dose at 30 mpk b.i.d.; assay type: ADME; details: mouse, in vivo, 30 mg/kg, 336 h
[21] = Glucose levels in ob/ob mice after 14 days of oral dose at 30 mpk b.i.d.; assay type: ADME; details: mouse, in vivo, 30 mg/kg, 336 h
[22] = Glycogen levels in ob/ob mice after 14 days of oral dose at 30 mpk b.i.d.; assay type: ADME; details: mouse, in vivo, 30 mg/kg, 336 h
[23] = Liver TAT levels in ob/ob mice after 14 days of oral dose at 100 mpk b.i.d.; assay type: ADME, tissue-based; details: mouse, in vivo, 100 mg/kg, 336 h
[24] = Plasma protein binding of tritium labeled compound in mouse plasma was determined; assay type: ADME, cell-free; details: read-out: Protein binding (converted)
[25] = Compound level in liver in ob/ob mice after 13 days of […] mpk oral dose of compound; assay type: ADME, tissue-based; details: mouse, 30 mg/kg, read-out: Level
[26] = Triglyceride levels in ob/ob mice after 30 days of oral dose at 100 mpk b.i.d.; assay type: ADME; details: mouse, in vivo, 100 mg/kg, 720 h
[27] = Aspartate aminotransferase /alanine aminotransferase levels in ob/ob mice after 30 days of oral dose at 100 mpk b.i.d.; assay type: ADME; details: mouse, in vivo, 100 mg/kg, 720 h
[28] = Free fatty acid (FFA) levels in ob/ob mice after 30 days of oral dose at 100 mpk b.i.d.; assay type: ADME; details: mouse, in vivo, 100 mg/kg, 720 h
[29] = Cholesterol levels in ob/ob mice after 30 days of oral dose at 100 mpk b.i.d.; assay type: ADME; details: mouse, in vivo, 100 mg/kg, 720 h
[30] = Triglyceride levels in ob/ob mice after 30 days of oral dose at 30 mpk b.i.d.; assay type: ADME; details: mouse, in vivo, 30 mg/kg, 720 h
Mus musculus [31] = species: Mus musculus; test: Initial weight of the ob/ob mice before oral treatment at 30 mpk b.i.d. for 14 days; assay type: functional
[32] = Insulin levels in ob/ob mice after 14 days of oral dose at 100 mpk b.i.d.; assay type: ADME; details: mouse, in vivo, 100 mg/kg, 336 h
[33] = Cholesterol levels in ob/ob mice after 14 days of oral dose at 30 mpk b.i.d.; assay type: ADME; details: mouse, in vivo, 30 mg/kg, 336 h
[34] = Free fatty acid (FFA) levels in ob/ob mice after 30 days of oral dose at 30 mpk b.i.d.; assay type: ADME; details: mouse, in vivo, 30 mg/kg, 720 h
[35] = Area under the concentration-time curve in SD rats after 5 mg/kg oral dose; assay type: ADME, organism-based; set-up: dose 5 mg/kg, route oral; details: rat, in vivo
[36] = Oral bioavailability in SD rats after 5 mg/kg oral dose; assay type: ADME, organism-based; details: Sprague-Dawley, rat, in vivo
[37] = Liver TAT levels in ob/ob mice after 14 days of oral dose at 30 mpk b.i.d.; assay type: ADME, tissue-based; details: mouse, in vivo, 30 mg/kg, 336 h
[38] = Insulin levels in ob/ob mice after 14 days of oral dose at 30 mpk b.i.d.; assay type: ADME; details: mouse, in vivo, 30 mg/kg, 336 h
[39] = Aspartate aminotransferase /alanine aminotransferase levels in ob/ob mice after 30 days of oral dose at 30 mpk b.i.d.; assay type: ADME; details: mouse, in vivo, 30 mg/kg, 720 h
[40] = Plasma protein binding of tritium labeled compound in human plasma was determined; assay type: ADME, cell-free; details: read-out: Protein binding
[41] = Cholesterol levels in ob/ob mice after 30 days of oral dose at 30 mpk b.i.d.; assay type: ADME; details: mouse, in vivo, 30 mg/kg, 720 h
[42] = HbA1c levels in ob/ob mice after 30 days of oral dose at 30 mpk b.i.d.; assay type: ADME; details: mouse, in vivo, 30 mg/kg, 720 h
[43] = Glycogen levels in ob/ob mice after 14 days of oral dose at 100 mpk b.i.d.; assay type: ADME; details: mouse, in vivo, 100 mg/kg, 336 h

With `Cc1c(NS(C)(=O)=O)cccc1N(Cc1ccccc1)Cc1ccc(Oc2ccc(OCC(=O)O)cc2)cc1` as the compound, how does the Level [1] read?
The Level was 1.3 mequiv/L.

And the Weight (Mus musculus [2])?
Its Weight is 46.6 g.

And the Level [3]?
The Level was 2900 µg/mL.

What about the Level [4] of the same compound?
The Level was 1 mequiv/L.

And the Weight (Mus musculus [5])?
Its Weight is 49.3 g.

What about the Level [6] of the same compound?
The Level was 330 units/mL.

What about the Weight (Mus musculus [7]) of the same compound?
The Weight was 46 g.

What about the Level [8] of the same compound?
The Level was 420 units/mL.

And the Level [9]?
The Level was 786 units/mL and 282 units/mL.

What about the Clearance [10] of the same compound?
The Clearance was 233 mL/min/kg.

And the Weight (Mus musculus [11])?
Its Weight is 45.4 g.

And the Level [12]?
The Level was 3330 µg/mL.

For `Cc1c(NS(C)(=O)=O)cccc1N(Cc1ccc(Oc2ccc(F)c(OCC(=O)O)c2)cc1)Cc1ccc(F)cc1F`, which Weight (Mus musculus [13]) is on record?
The Weight was 46.9 g.

What about the Level [14] of the same compound?
The Level was 1.01 mequiv/L.

What about the Level [15] of the same compound?
Its Level is 1340 µg/mL.

What about the Level [16] of the same compound?
The Level was 2330 µg/mL.

What about the Weight (Mus musculus [17]) of the same compound?
Its Weight is 40 g.

And the Weight (Mus musculus [18])?
The Weight was 49.2 g.

What about the Level [19] of the same compound?
The Level was 7.7%.

What about the Level [20] of the same compound?
Its Level is 0.99 mequiv/L.

What about the Level [21] of the same compound?
Its Level is 3140 µg/mL.

What about the Level [22] of the same compound?
The Level was 54.6 mg/g.

What about the Level [23] of the same compound?
The Level was 2.4 nmol ofpHB/min/mgof protein.

And the fraction unbound [24]?
The fraction unbound was 0.003.

And the concentration at 312 h [25]?
The concentration at 312 h was 20000 ng/g.

What about the Level [26] of the same compound?
Its Level is 1630 µg/mL.

What about the Level [27] of the same compound?
The Level was 303 units/mL.

What about the Level [28] of the same compound?
The Level was 1.27 mequiv/L.

And the Level [29]?
The Level was 2390 µg/mL.

What about the Level [30] of the same compound?
The Level was 2140 µg/mL.

And the Weight (Mus musculus [31])?
Its Weight is 41.5 g.

What about the Level [32] of the same compound?
The Level was 0.0328 µg/mL.

And the Level [33]?
The Level was 2250 µg/mL.

And the Level [34]?
Its Level is 0.99 mequiv/L.

And the AUC [35]?
The AUC was 3850 ng·h/mL.

What about the bioavailability [36] of the same compound?
Its bioavailability is 40%.

What about the Level [37] of the same compound?
Its Level is 1.7 nmol ofpHB/min/mgof protein.

And the Level [38]?
The Level was 0.025 µg/mL.

What about the Level [39] of the same compound?
Its Level is 395 units/mL.

And the fraction unbound [40]?
The fraction unbound was 0.001.

What about the Level [41] of the same compound?
The Level was 2660 µg/mL.

What about the Level [42] of the same compound?
The Level was 8.9%.

And the Level [43]?
Its Level is 44.2 mg/g.
